Data taken from patent publication US20120189673A1, “POLYPEPTIDES AND USES THEREOF” (priority 2009, published 2012).
“Also recorded” adds a separate entry of the source.

Assays:
RAW 264.7 macrophages = experiment: NO production in RAW 264.7 macrophages stimulated with LPS or other microbial products (Griess reaction); assay type: cell-based, mouse
Experimental: Effects of various microbial products on macrophages in vitro and anti-inflammatory effects by various peptides of HCII and TFPI. 3.5×10^5 cells were seeded in 96-well tissue culture plates (Nunc, 167008) in phenol red-free DMEM (Gibco) supplemented with 10% FBS and antibiotics. Following 6 hours of incubation to permit adherence, cells were stimulated with 10 ng/mL E. coli (0111:B4) LPS (Sigma), lipoteichoic acid, peptioglycan, or zymosan, with and without peptides at the indicated doses (se figure legends and figures). The levels of NO in culture supernatants were determined after 24 hours from stimulation using the Griess reaction. Briefly, nitrite, a stable product of NO degradation, was measured by mixing 50 μl of culture supernatants with the same volume of Griess reagent (Sigma, G4410) and reading absorbance at 550 nm after 15 min. Phenol-red free DMEM with FBS and antibiotics were used as a blank. A standard curve was prepared using 0-80 μM sodium nitrite solutions in ddH20.
LPS effects on macrophages in vitro—[…] cells were seeded in 96-well tissue culture plates (Nunc, 167008) in phenol red-free DMEM (Gibco) supplemented with 10% FBS containing 1% Anti-Anti (Invitrogen). Following 20 hours of incubation to permit adherence, cells were washed and stimulated with 10 ng/ml E. coli (0111:B4) or P. aeruginosa LPS (Sigma), with and without the peptides GGL27, GGL27(S), and DSE25 of various doses. The levels of NO in culture supernatants were determined after 24 hours from stimulation using the Griess reaction (27). Briefly, nitrite, a stable product of NO degradation, was measured by mixing 50 μl of culture supernatants with the same volume of Griess reagent (Sigma, G4410) and reading absorbance at 550 nm after 15 min. Phenol-red free DMEM with FBS and antibiotics were used as a blank. A standard curve was prepared using 0-80 μM sodium nitrite solutions in ddH20.

P. aeruginosa = experiment: Complement (C1q, C5b-9/MAC, C3a) binding to P. aeruginosa in citrate plasma (immunoblot, flow cytometry); assay type: cell-based, Pseudomonas aeruginosa; conditions: citrate plasma with GGL27 at 3 μM
Experimental: Flow cytometry analysis—Fifty μl of bacteria (1-2×10^6 cfu) were incubated with 450 μl of human plasma either alone or supplemented with GGL27 (at 3 μM). Samples were incubated for 30 min or 1 h at 37° C., divided into two equal parts, centrifuged, washed with PBS, and resuspended in 100 μl PBS with rabbit polyclonal antibodies against either LGE27 (25), a C-terminal epitope of human C3a, or rabbit polyclonal antibodies against C1q (both at 1:100). The mixtures were subsequently incubated for 1 h at room temperature. Bacteria were pelleted and washed twice with PBS, incubated in 100 μl PBS with goat anti rabbit IgG FITC-labeled antibodies (1:500, Sigma) for 30 min at room temperature and washed twice with PBS. In another experiment bacteria were incubated for 1 h in citrate plasma together with 3 μM TAMRA-labeled GGL27 peptide, then pelleted and washed twice with PBS. Flow cytometry analysis (Becton-Dickinson, Franklin Lakes, N.J.) was performed using a FACS-Calibur flow cytometry system equipped with a 15 mW argon laser turned a 488 nm. […]
SDS-PAGE and immunoblotting—Human citrate plasma (450 μl) was incubated with 50 μl bacteria (1-2×10^9 cfu) either alone or supplemented with the peptide GGL27 at 3 μM. […] Precipitated material and supernatants were dissolved in SDS sample buffer and analyzed under reducing conditions by SDS-PAGE on 16.5% Tris-tricine gels (Clear PAGE™, C.B.S Scientific). […]

[1] = system: E. coli LPS shock in C57BL/6 mice; experiment: LPS model in vivo (LPS-induced shock): survival, cytokines, lungs; parameters: species or system mouse
Experimental: Histochemistry—For immunostaining, wound biopsies were fixed in 10% formalin, rehydrated and embedded in paraffin. Sections of 5 μm thickness were placed on poly-lysine coated glass slides, deparaffinized in xylene and rehydrated in graded alcohols. The slides were then treated with Dako antigen retrieval solution (Dako) for 40 min at 97° C., and incubated for 24 h at room temperature in a 1:50 dilution of polyclonal antibodies against TFPI (Sigma-Aldrich, in TBS with 1% BSA, 5% goat serum, 0.05% Tween 20). After three 20 min washes in TBS with 0.05% Tween 20, the sections were incubated with alkaline phosphatase conjugated secondary goat anti-rabbit IgG (Dako) diluted 1:1000 in the same buffer as the primary antibody and incubated for another 24 hours, followed by three 20 min washes. Sections were developed with Vulcan Fast Red chromogen (Biocare Medical, Concord, Calif.) and the slides were counterstained with Harris Hematoxylin (EM Science, Gibbstown, N.J.). For histological evaluation of lungs derived from the in vivo LPS-models in mice, tissues were embedded as above, sectioned and stained with hematoxylin and eosin by routine procedures (Histocenter, Gothenburg, Sweden).
LPS model in vivo—Male C57BL/6 mice (8-10 weeks, 22+/−5 g), were injected intraperitoneally with 18 mg E. coli 0111:B4 LPS (Sigma) per kg of body weight. Thirty minutes after LPS injection, 0.5 mg GGL27, GGL27(S), DSE25 or buffer alone was injected intraperitoneally into the mice. Survival and status was followed during seven days. For blood collection and histochemistry, mice were sacrificed 20 h after LPS challenge, and lungs were removed and fixed. These experiments were approved by the Laboratory Animal Ethics Committee of Malmo/Lund.
Cytokine assay—The cytokines IL-6, IL-10, MCP-1, INF-γ, and TNF-α were measured in plasma from mice subjected to LPS (with or without peptide treatment) using the Cytometric bead array; mouse inflammation kit (Becton Dickinson AB) according to the manufacturer's instructions.

[2] = 20 h after LPS injection, peptide 500 μg

Sequence: GGLIKTKRKRKKQRVKIAYEEIFVKNM [GGL27, C-terminal peptide of TFPI, plasmin-generated]
- anti-endotoxic effects in vitro (RAW 264.7 macrophages): anti-endotoxic effects
- LPS-mediated NO release (RAW 264.7 macrophages; LPS from E. coli or P. aeruginosa, peptide at indicated concentrations (FIG. 41C)): inhibits NO production; also recorded: inhibited LPS-mediated NO-release
- generation and binding of C3a-containing fragments to the bacterial surface (P. aeruginosa; FACS analysis): increased generation and binding of these C3a-containing fragments
- C1q/MAC alterations (P. aeruginosa): no significant C1q/MAC alterations
- inflammatory changes in lungs (histochemical analysis) ([1]; 20 h after LPS injection, GGL27 500 μg): marked attenuation of inflammatory changes; also recorded: marked reduction of inflammation and vascular leakage
- IFN-γ in blood [1, 2]: significant reductions
- IL-6 in blood [1, 2]: significant reductions
- IL-10 in blood [1, 2]: increased
- MCP-1 in blood [1, 2]: significant reductions
- TNF-α in blood [1, 2]: significant reductions
- overall (proinflammatory) cytokine release [1, 2]: attenuates proinflammatory cytokines
- survival ([1]; E. coli LPS i.p., peptide 500 μg i.p. 30 minutes after, followed 7 days): significantly increased survival
- anti-endotoxic effects in vivo ([1]; mouse model of LPS-shock): anti-endotoxic effects
